Experimental data published in patent US20230109010A1, “PESTICIDE COMPOSITIONS WITH SUPRAMOLECULAR STRUCTURES FOR AGRICULTURAL USE” (BPS JUST ENERGY TECHNOLOGY, LLC, priority 2020, published 2023).

Assays:
[1] = tested on: Fall armyworms; experiment: Insecticide leaf-dip bioassay on spinach squares, percent killed; format: in vivo, Spodoptera frugiperda
Protocol: In this example, a ten replicated in vitro bioassay was conducted to understand the insecticide compatibilities of insecticide compositions with supramolecular host or guest chemistries. This example utilized a common insecticide, chlorantraniliprole at various application rates to understand the impact of supramolecular chemistry. Chlorantraniliprole is an insecticide active ingredient found in Coragen® insecticide, Ferterra® insecticide, and Acelepryn G® insecticide among others. Chlorantraniliprole, also known as Rynaxypyr, is an insecticide belonging to the chemical group, diamides, with a group 28 mode of action. Chlorantraniliprole opens muscular calcium channels (particularly the ryanodine receptor), rapidly causing paralysis and ultimately death of sensitive species, those being of the order of Lepidoptera and some other Coleoptera, Diptera, and Isoptera species.
A 2x factorial was used for ppm dosages to test with those being 0.005, 0.01, 0.02, 0.04, and 0.08 ppm of chlorantraniliprole. The chlorantraniliprole was sourced from Millipore Sigma, CAS Number: 500008-45-7, with the reference material being the material used for this example. The treatments were 0.005, 0.01, 0.02, 0.04, and 0.08 ppm of chlorantraniliprole as control. The supramolcular compositions were screened at the same rates of chlorantraniliprole with the addition of 23% SymMAX™ supramolecular host chemistry to the active (i.e. 0.08 ppm of active would have 0.0184 ppm 23% SymMAX™ supramolecular host chemistry). SymMAX™ supramolecular host chemistry was sourced from Shotwell Hydrogenics. The insects used for this experiment were Fall armyworms, Spodoptera frugiperda, sourced from Benzon Research of Pennsylvania. Eggs were reared to first instar at 23° C. with a noctuid diet also prepared by Benzon research.
Treatment solutions were prepared by making a stock solution of chlorantraniliprole by dissolving 0.0056 grams of chlorantraniliprole into 49.98 grams of acetone to make a 112 ppm stock solution. The stock solution was diluted to 11 ppm to make the appropriate treatment rates and to make the supramolecular compositions. The 11 ppm stock solution of the control and composition was diluted to 0.005, 0.01, 0.02, 0.04, and 0.08 ppm by diluting to a 100 gram solution of water for the leaf dipping.
Treatments were applied to 1-inch squares of spinach that were dipped in each treatment solution and allowed to dry at room temperature at 20° C. for 2 hours before 5 to 6 fall armyworms were added to a petri dish with filter paper and 1.7 mL of water. Each petri dish represents one repetition of the application and the number of live worms added were recorded on each petri dish and counted at 24 and 48 hours.

[2] = tested on: Pythium irregulare; experiment: In vitro fungal bioassay on amended PDA, fungal ring diameter; format: cell-based; conditions: fungicide at EC50 concentration, 24° C., 96 hours
[3] = tested on: Macrophomina phaseoli; experiment: as above; format: cell-based; conditions: fungicide at EC50 concentration, 24° C., 96 hours
[4] = tested on: Botrytis cinerea; experiment: as above; format: cell-based; conditions: fungicide at EC50 concentration, 24° C., 96 hours
[5] = tested on: Sclerotinia sclerotiorum; experiment: as above; format: cell-based; conditions: fungicide at EC50 concentration, 24° C., 96 hours
[6] = tested on: Fusarium graminearum; format: cell-based; conditions: fungicide at EC50 concentration, PDA, 24° C., 96 hours
[7] = tested on: Rhizoctonia solani; experiment: In vitro fungal bioassay on amended PDA, fungal ring diameter; format: cell-based; conditions: fungicide at EC50 concentration, 24° C., 96 hours

CNC(=O)c1cc(Cl)cc(C)c1NC(=O)c1cc(Br)nn1-c1ncccc1Cl [Chlorantraniliprole Control, chlorantraniliprole]
PERCENT KILLED AT 24 HOURS ([1]; 0.005 ppm chlorantraniliprole): 26.0% | PERCENT KILLED AT 48 HOURS ([1]; 0.005 ppm chlorantraniliprole): 36.0% | PERCENT KILLED AT 24 HOURS ([1]; 0.01 ppm chlorantraniliprole): 15.3% | PERCENT KILLED AT 48 HOURS ([1]; 0.01 ppm chlorantraniliprole): 57.0% | PERCENT KILLED AT 24 HOURS ([1]; 0.02 ppm chlorantraniliprole): 15.3% | PERCENT KILLED AT 48 HOURS ([1]; 0.02 ppm chlorantraniliprole): 28.9% | PERCENT KILLED AT 24 HOURS ([1]; 0.04 ppm chlorantraniliprole): 37.7% | PERCENT KILLED AT 48 HOURS ([1]; 0.04 ppm chlorantraniliprole): 81.4% | PERCENT KILLED AT 24 HOURS ([1]; 0.08 ppm chlorantraniliprole): 19.6% | PERCENT KILLED AT 48 HOURS ([1]; 0.08 ppm chlorantraniliprole): 91.7%

CO/C=C(/C(=O)OC)c1ccccc1Oc1cc(Oc2ccccc2C#N)ncn1 [Azoxystrobin, azoxystrobin]
FUNGAL RING DIAMETER (mm) FOR AZOXYSTROBIN [2]: 44.3 mm | FUNGAL RING DIAMETER (mm) FOR AZOXYSTROBIN [3]: 40.2 mm | FUNGAL RING DIAMETER (mm) FOR AZOXYSTROBIN [4]: 52.5 mm | FUNGAL RING DIAMETER (mm) FOR AZOXYSTROBIN [5]: 43.1 mm | FUNGAL RING DIAMETER (mm) FOR AZOXYSTROBIN [6]: 21.1 mm | FUNGAL RING DIAMETER (mm) FOR AZOXYSTROBIN [7]: 48.4 mm

FC(F)C(F)(F)OCC(Cn1cncn1)c1ccc(Cl)cc1Cl (stereo not shown) [Tetraconazole, tetraconazole]
FUNGAL RING DIAMETER (mm) FOR FLUXAPYROXAD [2]: 89 mm | FUNGAL RING DIAMETER (mm) FOR TETRACONAZOLE [2]: 85.93 mm | FUNGAL RING DIAMETER (mm) FOR FLUXAPYROXAD [3]: 66.979 mm | FUNGAL RING DIAMETER (mm) FOR TETRACONAZOLE [3]: 61.298 mm | FUNGAL RING DIAMETER (mm) FOR FLUXAPYROXAD [4]: 49.988 mm | FUNGAL RING DIAMETER (mm) FOR TETRACONAZOLE [4]: 65.2 mm | FUNGAL RING DIAMETER (mm) FOR FLUXAPYROXAD [5]: 65.41 mm | FUNGAL RING DIAMETER (mm) FOR TETRACONAZOLE [5]: 56.96 mm | FUNGAL RING DIAMETER (mm) FOR FLUXAPYROXAD [6]: 40.783 mm | FUNGAL RING DIAMETER (mm) FOR TETRACONAZOLE [6]: 30.766 mm | FUNGAL RING DIAMETER (mm) FOR FLUXAPYROXAD [7]: 54.377 mm | FUNGAL RING DIAMETER (mm) FOR TETRACONAZOLE [7]: 74.33 mm
